Data from PMC2678953 (Journal of peptide science : an official publication of the …, 2008).

How the values were obtained:
GIVA cPLA2 = target: T1, GIVA cPLA2 (Homo sapiens, UniProt P47712); assay: mixed-micelle PLA2 activity assay; assay type: biochemical
T1 sequence (P47712 1-749): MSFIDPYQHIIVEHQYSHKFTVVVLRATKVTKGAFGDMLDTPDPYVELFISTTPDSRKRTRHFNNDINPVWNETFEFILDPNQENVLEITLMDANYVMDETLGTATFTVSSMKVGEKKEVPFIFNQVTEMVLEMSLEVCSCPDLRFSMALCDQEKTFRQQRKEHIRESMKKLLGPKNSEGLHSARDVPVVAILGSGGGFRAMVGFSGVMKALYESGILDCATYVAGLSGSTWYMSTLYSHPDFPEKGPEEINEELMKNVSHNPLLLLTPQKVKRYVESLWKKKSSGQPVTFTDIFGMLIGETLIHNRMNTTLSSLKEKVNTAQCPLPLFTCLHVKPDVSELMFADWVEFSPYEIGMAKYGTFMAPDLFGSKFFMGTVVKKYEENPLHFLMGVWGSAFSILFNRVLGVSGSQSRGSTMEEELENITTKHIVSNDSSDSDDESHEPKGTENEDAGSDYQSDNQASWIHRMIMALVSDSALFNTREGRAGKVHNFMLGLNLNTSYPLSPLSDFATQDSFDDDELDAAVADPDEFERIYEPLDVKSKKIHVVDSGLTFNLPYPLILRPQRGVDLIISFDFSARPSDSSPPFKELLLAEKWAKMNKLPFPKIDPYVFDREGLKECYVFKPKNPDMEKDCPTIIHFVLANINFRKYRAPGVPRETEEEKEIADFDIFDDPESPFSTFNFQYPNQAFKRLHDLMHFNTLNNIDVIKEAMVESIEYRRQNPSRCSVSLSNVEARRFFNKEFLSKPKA

GVIA iPLA2 = target: T2, GVIA iPLA2 (Homo sapiens, UniProt O60733); assay: in vitro GVIA iPLA2 activity assay, XI; assay type: biochemical
T2 sequence (O60733 1-806): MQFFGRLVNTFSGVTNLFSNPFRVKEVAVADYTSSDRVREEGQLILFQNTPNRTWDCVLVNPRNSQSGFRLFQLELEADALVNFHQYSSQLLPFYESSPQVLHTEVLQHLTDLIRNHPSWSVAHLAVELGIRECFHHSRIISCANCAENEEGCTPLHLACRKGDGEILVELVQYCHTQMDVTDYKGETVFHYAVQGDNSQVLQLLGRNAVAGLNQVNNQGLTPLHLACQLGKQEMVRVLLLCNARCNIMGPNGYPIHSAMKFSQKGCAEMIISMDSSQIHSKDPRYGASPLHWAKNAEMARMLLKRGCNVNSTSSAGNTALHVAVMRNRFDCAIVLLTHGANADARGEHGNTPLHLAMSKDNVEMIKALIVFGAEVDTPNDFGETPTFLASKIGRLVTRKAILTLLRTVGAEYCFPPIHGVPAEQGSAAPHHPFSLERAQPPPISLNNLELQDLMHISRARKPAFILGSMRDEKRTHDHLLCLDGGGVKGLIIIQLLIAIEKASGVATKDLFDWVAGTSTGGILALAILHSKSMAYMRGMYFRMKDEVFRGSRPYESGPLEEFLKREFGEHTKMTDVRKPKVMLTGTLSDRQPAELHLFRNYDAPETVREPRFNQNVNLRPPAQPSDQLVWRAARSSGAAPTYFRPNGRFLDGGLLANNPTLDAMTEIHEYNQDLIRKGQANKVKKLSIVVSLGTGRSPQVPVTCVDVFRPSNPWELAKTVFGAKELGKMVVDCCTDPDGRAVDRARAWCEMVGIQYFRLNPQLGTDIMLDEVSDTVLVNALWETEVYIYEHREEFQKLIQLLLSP

CCCCCCCCCCCCCCC(=O)C(=O)NCCCNS(=O)(=O)c1ccc(C)cc1 [5a, N-(3-(4-Methylphenylsulfonamido)propyl)-2-oxohexadecanamide]
GIVA cPLA2 (GIVA cPLA2): 0.055 ± 0.006 mole fraction (XI(50))
GVIA iPLA2 (GVIA iPLA2): 0.076 ± 0.020 mole fraction (XI(50))

CCCCCCCCCCCCCCC(=O)C(=O)N[C@@H](CCCC)CCCNS(C)(=O)=O [14a, (S)-N-[1-(Methylsulfonamido)octan-4-yl]-2-oxohexadecanamide]
GIVA cPLA2 (GIVA cPLA2): 0.029 ± 0.019 mole fraction (XI(50))
GVIA iPLA2 (GVIA iPLA2): 0.060 ± 0.037 mole fraction (XI(50))

CCCCCCCCCCCCCCC(=O)C(=O)N[C@@H](CCCC)CCCNS(=O)(=O)c1ccc(C)cc1 [14b, (S)-N-[1-(4-Methylphenylsulfonamido)octan-4-yl]-2-oxohexadecanamide]
GIVA cPLA2 (GIVA cPLA2): 0.033 ± 0.018 mole fraction (XI(50))

CCCCCCCCCCCCCCC(=O)C(=O)NCCCC(=O)N(C)S(=O)(=O)c1ccc(C)cc1 [compound 20, N-[4-(N,4-Dimethylphenylsulfonamido)-4-oxobutyl)-2-oxohexadecanamide]
GIVA cPLA2 (GIVA cPLA2): 0.033 ± 0.018 mole fraction (XI(50))
